Laboratory results reported in publication PMC5062169, “Structural basis for ligand recognition by a Cache chemosensory domain that mediates carboxylate sensing in Pseudomonas syringae” (Scientific Reports, 2016).

Columns and labels:
[1] = target: T1, PscD (PscD-SD, Cache sensor domain of chemoreceptor PscD) (Pseudomonas syringae, UniProt A0ABY1U976); assay: ITC; thermal shift; type: binding
T1 construct: gene CFBP3846_03581; sensor domain, Gln31-Trp188, N-terminal His6 tag

[2] = target: T2, PscD (PscD-SD, Cache sensor domain of chemoreceptor PscD) (Pseudomonas syringae, UniProt A0ABY1U976); conditions: Biolog plate compound, exact concentration unknown; binder
T2 construct: gene CFBP3846_03581; sensor domain, Gln31-Trp188, N-terminal His6 tag
T2 sequence (A0ABY1U976 31-188): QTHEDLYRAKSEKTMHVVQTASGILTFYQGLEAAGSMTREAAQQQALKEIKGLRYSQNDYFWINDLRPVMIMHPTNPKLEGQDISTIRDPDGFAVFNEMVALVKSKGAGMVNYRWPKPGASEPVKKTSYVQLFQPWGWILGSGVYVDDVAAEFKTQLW
Description: We used high-throughput fluorescence thermal shift (FTS) assays (as described previously[16]) to screen for potential ligands of PscD-SD. FTS assays are based on the principle that ligands stabilise proteins upon binding, causing an increase in the melting temperature of the protein[22][23]. Binding can therefore be rapidly screened by measuring the difference in the temperature midpoint of unfolding (ΔTm) of a protein in the presence and absence of potential ligands. In our FTS assays, the Tm was measured by monitoring an increase in fluorescence of a dye with affinity for hydrophobic parts of the protein (i.e. SYPRO Orange), which are exposed as the protein unfolds. We screened the recombinant PscD-SD protein in FTS assays against the compounds in Biolog Phenotype Microarray (PM) plates 1 and 2 (Supplementary Tables 1 and 2). Each plate contains 95 different compounds (e.g., organic acids, sugars) and a water (no ligand) control. For use in FTS assays, the compounds were resuspended directly in water, thus generating a library of biologically relevant potential ligands. […] Fluorescent thermal shift (FTS) assays were conducted as reported previously. PscD-SD was screened for potential ligands against Biolog Phenotype Microarray (PM) plates 1 and 2 (Biolog, Hayward, CA, USA). For initial qualitative, high-throughput screening, ligands were prepared by dissolving Biolog PM compounds in 50 μL of water (each) to obtain a final concentration of approximately 10–20 mM (the exact concentrations vary from well-to-well). Screens were set up in Lightcycler 480 multiwell plates (Roche Diagnostics, Auckland, NZ) with 20 μM protein, a 5x concentration of SYPRO orange (Life Technologies, Carlsbad, CA, USA) and 5 μL of the test compound (i.e. resuspended Biolog ligands) added to each well. The plate was covered with Lightcycler 480 sealing film (Roche Diagnostics) and fluorescence signal was monitored as the temperature was increased from 20 °C to 80 °C at a rate of 1.2 °C.min^−1 in a Lightcycler 480 (Roche Diagnostics). Initial hits were further tested using known concentrations (0, 1, 2, 5 and 10 mM) of each potential ligand to confirm binding. The ligands were prepared as 10x stocks, 2 μL were added to each well, and the experiments were conducted as described above. The first derivative values (−dF/dt) from the raw fluorescence data were used to determine the melting temperature (Tm). Three biological replicates (from independently cultured and purified batches of protein) were performed for each plate screened.

[3] = target: T1, PscD (PscD-SD, Cache sensor domain of chemoreceptor PscD); assay: ITC; X-ray crystal structure (propionate soak); thermal shift; type: binding

| Structure (SMILES) | Δ Tm [2] [°C] | other results |
| --- | --- | --- |
| CC(=O)O [acetate] |  | Kd ([1]; read-out: Kd): 31 µM |
| O=C(O)CO [glycolate] | 1.13 ± 0.00 | Kd [1]: 23 µM |
| O=C(O)Cc1cccc(O)c1 [m-Hydroxy Phenyl Acetic Acid] | 0.10 ± 0.05 |  |
| O=C(O)Cc1ccc(O)cc1 [p-Hydroxy Phenyl Acetic Acid] | 0.15 ± 0.04 |  |
| CCC(=O)O [propionate] | 2.66 ± 0.11 | Kd [3]: 101 µM |
| CC(=O)C(=O)O [pyruvate] | 1.01 ± 0.03 | Kd ([1]; read-out: Kd): 356 µM |
| OC[C@H]1O[C@H](O)[C@H](O)[C@@H](O)[C@@H]1O [α-D-Glucose] | 0.12 ± 0.03 |  |
| OC[C@H]1O[C@@H](O[C@H]2[C@H](O)[C@@H](O)[C@@H](O)O[C@@H]2CO)[C@H](O)[C@@H](O)[C@H]1O [α-D-Lactose] | 0.12 ± 0.03 |  |
| CCC(O)C(=O)O (stereo not drawn) [α-Hydroxy Butyric Acid] | 0.17 ± 0.05 |  |
| CCC(=O)C(=O)O [α-Keto-Butyric Acid] | 0.17 ± 0.05 |  |
| O=C(O)CCC(=O)C(=O)O [α-Keto-Glutaric Acid] | 0.17 ± 0.02 |  |
| CO[C@@H]1O[C@H](CO)[C@@H](O)[C@H](O)[C@H]1O [β-Methyl-D-Glucoside] | 0.07 ± 0.04 |  |
